# Measurements taken from patent US11958816B1, “N′-({[(5-phenyl-1,3,4-oxadiazol-2-yl)sulfanyl]acetyl}oxy)benzenecarboximidamide as an antimicrobial compound” (KING FAISAL UNIVERSITY, priority 2023, dated 2024).
# Key:
# Type in all cases: cell-based
# Escherichia coli = test: Agar plate disc-diffusion, antibacterial activity (inhibition zone); conditions: nutrient agar, 37° C., 48 h, DMSO zone subtracted
# Protocol: (§1) The agar plate disc-diffusion method was applied. […] The discs were then placed onto the surface of agar plates (nutrient agar for bacteria and Sabouraud's dextrose agar for fungi) seeded with the test organism. Each plate contained 15 mL of the agar medium, previously seeded with 0.2 mL of the broth culture of each organism pregrown for 18 hours. The plates were incubated at 37° C. for 48 h, and 72 h for fungi. The inhibition zones were measured in mm. Discs impregnated with DMSO were used as a control, and its inhibition zone was subtracted from the tested compound actual inhibition zone.
# Bacillus cereus = test: as above; conditions: nutrient agar, 37° C., 48 h, DMSO zone subtracted
# Protocol: as §1
# Staphylococcus aureus = test: as above; conditions: nutrient agar, 37° C., 48 h, DMSO zone subtracted
# Protocol: as §1
# Pseudomonas aeruginosa = test: as above; conditions: nutrient agar, 37° C., 48 h, DMSO zone subtracted
# Protocol: as §1
# [1] = system: Chrysosporium keratinophilum; test: Agar plate disc-diffusion, antifungal activity (inhibition zone); conditions: Sabouraud's dextrose agar, 37° C., 72 h, DMSO zone subtracted
# Protocol: as §1
# Aspergillus flavus = test: as above; conditions: Sabouraud's dextrose agar, 37° C., 72 h, DMSO zone subtracted
# Protocol: as §1
# [2] = A = concentration of comp. = 10,000 μL
# [3] = B = concentration of comp. = 30,000 μL
# [4] = C = concentration of comp. = 50,000 μL
compound,measurement,setting,value
"N/C(=N\OC(=O)CSc1nnc(-c2ccccc2)o1)c1ccccc1 [Compound 3, N′-({[(5-phenyl-1,3,4-oxadiazol-2-yl)sulfanyl]acetyl}oxy)benzenecarboximidamide]","inhibition zone, Escherichia coli, A",Escherichia coli; [2],25 mm
same,"inhibition zone, Escherichia coli, B",Escherichia coli; [3],37 mm
same,"inhibition zone, Escherichia coli, C",Escherichia coli; [4],45 mm
same,"inhibition zone, Bacillus Cereus, A",Bacillus cereus; [2],23 mm
same,"inhibition zone, Bacillus Cereus, B",Bacillus cereus; [3],28 mm
same,"inhibition zone, Bacillus Cereus, C",Bacillus cereus; [4],40 mm
same,"inhibition zone, Staphylococcus aureus, A",Staphylococcus aureus; [2],24 mm
same,"inhibition zone, Staphylococcus aureus, B",Staphylococcus aureus; [3],28 mm
same,"inhibition zone, Staphylococcus aureus, C",Staphylococcus aureus; [4],37 mm
same,"inhibition zone, Pseudomonas aeruginosa, A",Pseudomonas aeruginosa; [2],17 mm
same,"inhibition zone, Pseudomonas aeruginosa, B",Pseudomonas aeruginosa; [3],24 mm
same,"inhibition zone, Pseudomonas aeruginosa, C",Pseudomonas aeruginosa; [4],36 mm
same,"inhibition zone, Chrysosporium keratinophilum, A",[1]; [2],23 mm
same,"inhibition zone, Chrysosporium keratinophilum, B",[1]; [3],26 mm
same,"inhibition zone, Chrysosporium keratinophilum, C",[1]; [4],40 mm
same,"inhibition zone, Aspergillus flavus, A",Aspergillus flavus; [2],24 mm
same,"inhibition zone, Aspergillus flavus, B",Aspergillus flavus; [3],29 mm
same,"inhibition zone, Aspergillus flavus, C",Aspergillus flavus; [4],41 mm
